The record followed here is US8530487B1 (priority 2009, dated 2013).

Like-named read-outs stand apart in the source and are kept apart here.

The target of the test is human TRPA1 (Homo sapiens, UniProt O75762). Briefly: cell-based.
human TRPA1, sequence (O75762 whole entry): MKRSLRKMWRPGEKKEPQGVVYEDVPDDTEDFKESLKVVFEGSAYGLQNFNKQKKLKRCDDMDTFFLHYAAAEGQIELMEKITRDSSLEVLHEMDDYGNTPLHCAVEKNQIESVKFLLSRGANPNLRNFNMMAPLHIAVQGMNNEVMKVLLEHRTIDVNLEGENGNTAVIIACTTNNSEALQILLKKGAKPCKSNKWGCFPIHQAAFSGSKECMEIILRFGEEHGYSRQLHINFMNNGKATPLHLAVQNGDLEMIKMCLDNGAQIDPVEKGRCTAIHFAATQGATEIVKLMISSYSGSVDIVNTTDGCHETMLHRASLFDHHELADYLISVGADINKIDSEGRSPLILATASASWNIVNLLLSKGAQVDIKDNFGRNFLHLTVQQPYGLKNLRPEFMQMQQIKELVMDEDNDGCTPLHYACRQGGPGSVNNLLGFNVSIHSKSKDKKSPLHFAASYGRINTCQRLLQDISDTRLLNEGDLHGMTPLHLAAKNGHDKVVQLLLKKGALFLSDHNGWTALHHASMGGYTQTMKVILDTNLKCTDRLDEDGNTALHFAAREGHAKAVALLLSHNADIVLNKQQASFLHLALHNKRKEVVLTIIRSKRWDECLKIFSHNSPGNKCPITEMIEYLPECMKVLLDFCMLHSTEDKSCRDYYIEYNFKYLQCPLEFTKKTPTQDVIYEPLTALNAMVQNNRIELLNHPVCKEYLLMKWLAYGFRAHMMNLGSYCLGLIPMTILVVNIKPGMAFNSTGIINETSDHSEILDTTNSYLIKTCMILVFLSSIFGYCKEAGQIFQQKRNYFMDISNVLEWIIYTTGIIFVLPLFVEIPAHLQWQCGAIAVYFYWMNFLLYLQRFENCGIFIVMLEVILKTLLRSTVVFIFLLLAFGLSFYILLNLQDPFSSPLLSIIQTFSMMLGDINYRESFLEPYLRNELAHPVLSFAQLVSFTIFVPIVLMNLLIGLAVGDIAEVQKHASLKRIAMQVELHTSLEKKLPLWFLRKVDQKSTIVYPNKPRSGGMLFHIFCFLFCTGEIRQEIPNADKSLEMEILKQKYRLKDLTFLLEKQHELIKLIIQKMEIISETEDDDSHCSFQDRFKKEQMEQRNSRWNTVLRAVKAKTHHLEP

What is called IC50 is the midpoint of a concentration-inhibition curve. For the compound `N#CN=C1NC2=C(C(=O)c3c(Cl)cccc32)C(c2cccc(OCC3CC3)c2)N1` (stereo not drawn) [Compound 954], where the note is “read-out: Activity (IC50)”, the half-inhibitory concentration (IC50) is greater than 1000 nM. As to `CCCN1C(=O)NC(c2cccc(OC)c2)C2=C1c1ccccc1C2=O` (stereo not drawn) [Compound 624], the IC50 (read-out: Activity (IC50)) is greater than 1000 nM.

Regarding `CCCS(=O)(=O)c1cccc(C2NC(=O)NC3=C2C(=O)c2cccnc23)c1` (stereo not drawn) [Compound 911], the concentration for half-maximal inhibition (IC50) (read-out: Activity (IC50)) is greater than 1000 nM.

With `O=C1NC2=C(C(=O)c3ccccc32)C(c2ccccc2Cl)N1` (stereo not drawn) [Compound 426], the half-maximal inhibitory concentration (IC50) (read-out: Activity (IC50)) lay within 500 to 1000 nM. On to `O=C1C2=C(NC(=S)NC2c2ccccc2)c2ccccc21` (stereo not drawn) [Compound 201], for which the half-maximal inhibitory concentration (IC50) is less than 100 nM. As to `N#CN=C1NC2=C(C(=O)c3ccccc32)C(c2cccc(OCC3CCC3)c2)N1` (stereo not drawn) [Compound 958], the IC50 (read-out: Activity (IC50)) was greater than 1000 nM.

Take `N#CN=C1NC2=C(C(=O)c3ccccc32)C(c2cccc(OCC3CC3)c2)N1` (stereo not drawn) [Compound 951]: the IC50 (read-out: Activity (IC50)) is greater than 1000 nM. With `O=C1NC2=C(C(=O)c3c(Cl)cccc32)C(c2cc(O)ccc2Br)N1` (stereo not drawn) [Compound 101], the 50% inhibitory concentration (IC50) (read-out: Activity (IC50)) was less than 100 nM. Turning to `COc1cccc(C2NC(=O)NC3=C2C(=O)c2ccccc23)c1OC` (stereo not drawn) [Compound 438], for the setting “read-out: Activity (IC50)”, the IC50 was greater than 1000 nM. With `O=C1NC2=C(C(=O)c3ccccc32)C(c2ccc3c(c2)OCO3)N1` (stereo not drawn) [Compound 457], the IC50 (read-out: Activity (IC50)) is greater than 1000 nM. On the same count and under the same terms, as for `CN1C(=S)N(C)C(c2ccccc2)C2=C1c1ccccc1C2=O` (stereo not drawn) [Compound 304], the figure is greater than 1000 nM; as for `C=CCOc1cccc(C2NC(=O)N(Cc3ccncc3)C3=C2C(=O)c2ccccc23)c1` (stereo not drawn) [Compound 635], greater than 1000 nM; as for `CCCOc1cccc(C2NC(=O)N(Cc3ccccc3)C3=C2C(=O)c2ccccc23)c1` (stereo not drawn) [Compound 647], less than 100 nM. Take `C=CCOc1cccc(C2NC(=O)N(C)C3=C2C(=O)c2ccccc23)c1` (stereo not drawn) [Compound 629]: the IC50 (read-out: Activity (IC50)) was less than 100 nM.

In turn, `COc1cccc(C2NC(=O)NC3=C2C(=O)c2ccccc23)c1` (stereo not drawn) [Compound 621] displayed a 50% inhibitory concentration (IC50) of 500 to 1000 nM. Consider `CCN1C(=O)NC(c2cccc(OC(F)F)c2)C2=C1c1ccccc1C2=O` (stereo not drawn) [Compound 619], for which, where the note is “read-out: Activity (IC50)”, the IC50 is 100 to 500 nM. As for `O=C1NC2=C(C(=O)c3ccccc32)C(c2cccc3c2OCO3)N1` (stereo not drawn) [Compound 439], under “read-out: Activity (IC50)”, the IC50 was greater than 1000 nM. Regarding `C=CCOc1cccc(C2NC(=O)N(CC)C3=C2C(=O)c2ccccc23)c1` (stereo not drawn) [Compound 630], the half-inhibitory concentration (IC50) (read-out: Activity (IC50)) is less than 100 nM.

Consider `C=CCOc1cccc(C2NC(=O)N(C)C3=C2C(=O)c2ccccc23)c1Cl` (stereo not drawn) [Compound 639], for which the IC50 (read-out: Activity (IC50)) is less than 100 nM.

`C=CCOc1cccc(C2NC(=O)N(C)C3=C2C(=O)c2ccccc23)c1C(F)(F)F` (stereo not drawn) [Compound 643]: the half-maximal inhibitory concentration (IC50) (read-out: Activity (IC50)) was greater than 1000 nM.

Turning to `CCOc1cccc(C2NC(=O)N(Cc3cccnc3)C3=C2C(=O)c2ccccc23)c1` (stereo not drawn) [Compound 612], the IC50 (read-out: Activity (IC50)) lay in the range of 100 to 500 nM.

On to `CCOc1cccc(C2NC(=O)NC3=C2C(=O)c2ccccc23)c1` (stereo not drawn) [Compound 412], for which the 50% inhibitory concentration (IC50) (read-out: Activity (IC50)) fell in the range of 100 to 500 nM. Still for that read-out and setting: as for `CCOc1cccc(C2NC(=O)N(Cc3ccccc3)C3=C2C(=O)c2ccccc23)c1` (stereo not drawn) [Compound 606], the figure is less than 100 nM; as for `CCOc1cccc(C2NC(=O)NC3=C2C(=O)c2ccccc23)n1` (stereo not drawn) [Compound 504], 500 to 1000 nM. For the compound `CC(C)Oc1cccc(C2NC(=O)NC3=C2C(=O)c2ccccc23)c1` (stereo not drawn) [Compound 437], under “read-out: Activity (IC50)”, the IC50 is greater than 1000 nM. For `C=CCOc1ccc(F)c(C2NC(=O)NC3=C2C(=O)c2ccccc23)c1` (stereo not drawn) [Compound 417], under “read-out: Activity (IC50)”, the 50% inhibitory concentration (IC50) was 100 to 500 nM. In the case of `N#Cc1cccc(C2NC(=O)NC3=C2C(=O)c2ccccc23)c1` (stereo not drawn) [Compound 430], where the note is “read-out: Activity (IC50)”, the concentration for half-maximal inhibition (IC50) is greater than 1000 nM. Turning to `C=CCOc1cccc(C2NC(=O)NC3=C2C(=O)c2ccccc23)c1Cl` (stereo not drawn) [Compound 411], the IC50 (read-out: Activity (IC50)) was less than 100 nM. `N#CCN1C(=O)NC(c2cccc(OC(F)F)c2)C2=C1c1ccccc1C2=O` (stereo not drawn) [Compound 618]: the IC50 (read-out: Activity (IC50)) was less than 100 nM. Turning to `CCOc1cccc(C2NC(=O)N(CC(F)(F)F)C3=C2C(=O)c2ccccc23)c1` (stereo not drawn) [Compound 605], the IC50 (read-out: Activity (IC50)) was 500 to 1000 nM. In the case of `O=C1NC2=C(C(=O)c3ccccc32)C(c2cccc(O)c2)N1` (stereo not drawn) [Compound 436], the 50% inhibitory concentration (IC50) (read-out: Activity (IC50)) was greater than 1000 nM. In the case of `CCn1c(=O)oc2c(C3NC(=O)NC4=C3C(=O)c3ccccc34)cccc21` (stereo not drawn) [Compound 506], the half-maximal inhibitory concentration (IC50) (read-out: Activity (IC50)) is greater than 1000 nM. As to `O=C1C2=C(c3ccccc31)N(Cc1ccccc1)C(=O)NC2c1cccc(OC(F)F)c1` (stereo not drawn) [Compound 620], where the note is “read-out: Activity (IC50)”, the concentration for half-maximal inhibition (IC50) was less than 100 nM. The same measure, in the same setting: as for `O=C1NC2=C(C(=O)c3ccccc32)C(c2cccc(OCC3CCC3)c2)N1` (stereo not drawn) [Compound 461], the figure is greater than 1000 nM; as for `C=CCOc1cccc(C2NC(=S)NC3=C2C(=O)c2ccccc23)c1` (stereo not drawn) [Compound 305], less than 100 nM; as for `O=C1NC2=C(C(=O)c3ccccc32)C(c2cccnc2)N1` (stereo not drawn) [Compound 501], greater than 1000 nM. As to `CN1C(=S)NC(c2ccccc2)C2=C1c1ccccc1C2=O` (stereo not drawn) [Compound 302], the IC50 (read-out: Activity (IC50)) was less than 100 nM. For the compound `CN1C(=O)NC(c2cccc(OCC3CC3)c2)C2=C1c1ccccc1C2=O` (stereo not drawn) [Compound 641], the concentration for half-maximal inhibition (IC50) (read-out: Activity (IC50)) fell in the range of 100 to 500 nM. In the case of `COc1cccc(C2NC(=O)N(CCO)C3=C2C(=O)c2ccccc23)c1` (stereo not drawn) [Compound 626], the IC50 (read-out: Activity (IC50)) is greater than 1000 nM. As for `C=CC(F)(F)Oc1cccc(C2NC(=O)N(Cc3ccccc3)C3=C2C(=O)c2ccccc23)c1` (stereo not drawn) [Compound 649], under “read-out: Activity (IC50)”, the IC50 is greater than 1000 nM.

Regarding `CN1C(=S)NC(c2cccc(C#N)c2)C2=C1c1ccccc1C2=O` (stereo not drawn) [Compound 308], the IC50 (read-out: Activity (IC50)) is less than 100 nM. The same measure, in the same setting: as for `CCCCOc1cccc(C2NC(=O)NC3=C2C(=O)c2ccccc23)c1` (stereo not drawn) [Compound 408], the figure is less than 100 nM.

For `CCOc1cccc(C2NC(=S)N(C)C3=C2C(=O)c2ccccc23)c1` (stereo not drawn) [Compound 311], the IC50 (read-out: Activity (IC50)) was less than 100 nM. Compound `N#Cc1ccc(C2NC(=S)NC3=C2C(=O)c2ccccc23)cc1` (stereo not drawn) [Compound 35] came in with an IC50 of 500 to 1000 nM. On to `C=CCOc1cccc(C2NC(=O)NC3=C2C(=O)c2ccccc23)c1C(F)(F)F` (stereo not drawn) [Compound 454], for which, under “read-out: Activity (IC50)”, the IC50 is greater than 1000 nM. As for `COc1cc(OC)cc(C2NC(=O)NC3=C2C(=O)c2ccccc23)c1` (stereo not drawn) [Compound 458], where the note is “read-out: Activity (IC50)”, the IC50 was greater than 1000 nM. Consider `CCCOc1ccc(F)c(C2NC(=O)N(CC#N)C3=C2C(=O)c2ccccc23)c1F` (stereo not drawn) [Compound 648], for which the IC50 (read-out: Activity (IC50)) is less than 100 nM. Turning to `C=CCOc1cccc(C2NC(=O)NC3=C2C(=O)c2ccccc23)c1OC` (stereo not drawn) [Compound 455], under “read-out: Activity (IC50)”, the concentration for half-maximal inhibition (IC50) was greater than 1000 nM. Still for that read-out and setting: as for `O=C1NC2=C(C(=O)c3ccccc32)C(c2cccc(C(F)(F)F)c2)N1` (stereo not drawn) [Compound 452], the figure is greater than 1000 nM; as for `C=CCOc1cccc(C2NC(=O)N(CC(=O)OCC)C3=C2C(=O)c2ccccc23)c1` (stereo not drawn) [Compound 631], less than 100 nM. Same read-out and setting: next, `O=C1NC2=C(C(=O)c3ccccc32)C(c2cccs2)N1` (stereo not drawn) [Compound 502]: greater than 1000 nM; `CCOc1cccc(C2NC(=O)N(CC#N)C3=C2C(=O)c2ccccc23)c1` (stereo not drawn) [Compound 601]: less than 100 nM. Same read-out and setting: next, `COc1cccc(C2NC(=O)N(CCN(C)C)C3=C2C(=O)c2ccccc23)c1` (stereo not drawn) [Compound 628]: greater than 1000 nM; `C=CCOc1ccc(Cl)c(C2NC(=O)N(C)C3=C2C(=O)c2ccccc23)c1` (stereo not drawn) [Compound 638]: less than 100 nM. `O=C1NC2=C(C(=O)c3ccccc32)C(c2cccc3[nH]c(=O)oc23)N1` (stereo not drawn) [Compound 505]: under “read-out: Activity (IC50)”, the IC50 is greater than 1000 nM.

On to `CC(F)(F)Oc1cccc(C2NC(=O)NC3=C2C(=O)c2ccccc23)c1` (stereo not drawn) [Compound 450], for which the half-maximal inhibitory concentration (IC50) (read-out: Activity (IC50)) was greater than 1000 nM. With `CCCOc1cccc(C2NC(=O)NC3=C2C(=O)c2ccccc23)c1` (stereo not drawn) [Compound 407], the 50% inhibitory concentration (IC50) (read-out: Activity (IC50)) was less than 100 nM.
